Test results reported in ChEMBL document CHEMBL2062519, “The β-Amyloid Hypothesis in Alzheimer's Disease: Seeing Is Believing” (ACS Med Chem Lett, 2012).

Target: Amyloid-beta precursor protein (Homo sapiens, UniProt P05067)
Experiment: Binding affinity to human amyloid beta plaque

Chain of Amyloid-beta precursor protein (P05067 whole entry): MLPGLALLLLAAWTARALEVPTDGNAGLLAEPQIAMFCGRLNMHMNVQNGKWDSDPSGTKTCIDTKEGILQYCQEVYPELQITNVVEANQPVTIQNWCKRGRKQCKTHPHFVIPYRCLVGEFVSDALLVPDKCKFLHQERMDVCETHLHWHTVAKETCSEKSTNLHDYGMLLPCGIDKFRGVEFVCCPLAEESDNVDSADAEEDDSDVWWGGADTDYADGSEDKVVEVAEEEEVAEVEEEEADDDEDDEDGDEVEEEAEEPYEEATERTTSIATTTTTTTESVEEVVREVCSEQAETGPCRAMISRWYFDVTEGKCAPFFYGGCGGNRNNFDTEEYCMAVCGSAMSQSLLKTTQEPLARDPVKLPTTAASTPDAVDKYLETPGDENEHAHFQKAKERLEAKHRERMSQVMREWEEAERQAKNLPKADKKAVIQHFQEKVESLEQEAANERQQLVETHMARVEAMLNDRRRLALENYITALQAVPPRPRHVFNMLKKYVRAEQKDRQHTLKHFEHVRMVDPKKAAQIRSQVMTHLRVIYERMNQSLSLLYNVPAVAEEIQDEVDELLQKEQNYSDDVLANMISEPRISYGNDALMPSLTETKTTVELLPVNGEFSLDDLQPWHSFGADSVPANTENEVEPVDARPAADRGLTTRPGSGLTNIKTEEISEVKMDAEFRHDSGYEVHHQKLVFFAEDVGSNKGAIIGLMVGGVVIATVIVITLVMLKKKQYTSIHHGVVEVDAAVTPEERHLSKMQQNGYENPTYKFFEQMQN

Ki: 700 pM
Compound: CNc1ccc(-c2nc3ccc(O)cc3s2)cc1[18F] [FLUTEMETAMOL F 18]
